Measured values taken from article PMC10223470 (Molecules, 2023).

Tests used:
[1] = biological target: T1, human 5-HT1A receptor (Homo sapiens, UniProt P08908); assay: Competition radioligand binding at human 5-HT1A receptor ([3H]-8-OH-DPAT); conditions: mean ± SEM of 2 independent experiments, read-out: hu5-HT1A % inh. at 10 µM
T1 construct: expressed in transfected cells; host or cells: HEK293
T1 sequence (P08908 1-422): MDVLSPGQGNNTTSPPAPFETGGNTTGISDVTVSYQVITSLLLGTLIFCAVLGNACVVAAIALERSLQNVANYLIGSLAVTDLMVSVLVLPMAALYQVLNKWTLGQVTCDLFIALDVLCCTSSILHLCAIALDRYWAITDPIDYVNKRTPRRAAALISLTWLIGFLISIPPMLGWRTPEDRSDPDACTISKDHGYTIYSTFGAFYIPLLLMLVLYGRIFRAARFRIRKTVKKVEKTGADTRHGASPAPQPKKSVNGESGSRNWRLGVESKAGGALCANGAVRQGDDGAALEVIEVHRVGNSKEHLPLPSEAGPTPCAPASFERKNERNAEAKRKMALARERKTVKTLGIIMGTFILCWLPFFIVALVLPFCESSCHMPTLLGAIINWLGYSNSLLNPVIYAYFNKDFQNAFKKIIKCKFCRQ
Experimental: (§1) Competition radioligand binding assays were performed on membranes isolated from cell lines stably expressing the cloned human receptors, which were either in-house or commercially available. […] Assays (250 μL assay final volume) were carried out in 96-well polypropylene plates in duplicate. In short, the suspension of appropriate membrane protein was incubated in an assay buffer with the addition of the corresponding radioligand, in the presence or absence of a tested compound or reference compound. […] After the incubation, the content of the test plates was transferred to 96 well plates with glass fiber filter GF/B or GF/C, previously pretreated with polyethyleneimine (PEI), and rapidly filtered with the use of vacuum, followed by rapid washing with cold (4 °C) wash buffer. After that, the filter plates were dried at 60 °C for 1 h. Then, 30 μL of liquid scintillation cocktail (UniverSol-ES, MP Biomedicals, Solon, OH, USA) was added to each well of the filter plates, and the radioactivity was measured in a MicroBeta^2 microplate scintillation counter (PerkinElmer, Madrid, Spain).
(§2) Competition binding curves were fitted to a one-site competition binding model (Fit Ki) with the use of Prism 7 software (GraphPad, San Diego, CA, USA). logKi (log of the equilibrium dissociation constant (Ki)) values were obtained after constraining the concentration of radioligand employed in the assay and its dissociation constant (KD) as determined in saturation radioligand binding assays.

[2] = biological target: T2, human dopamine D3 receptor (Homo sapiens, UniProt P35462); assay: Competition radioligand binding at human D3 receptor ([3H]-Spiperone); conditions: mean ± SEM of 2 independent experiments, read-out: huD3 % inh. at 10 µM
T2 construct: expressed in transfected cells; host or cells: CHO-K1
Experimental: as §1, §2

T2 sequence (P35462 whole entry): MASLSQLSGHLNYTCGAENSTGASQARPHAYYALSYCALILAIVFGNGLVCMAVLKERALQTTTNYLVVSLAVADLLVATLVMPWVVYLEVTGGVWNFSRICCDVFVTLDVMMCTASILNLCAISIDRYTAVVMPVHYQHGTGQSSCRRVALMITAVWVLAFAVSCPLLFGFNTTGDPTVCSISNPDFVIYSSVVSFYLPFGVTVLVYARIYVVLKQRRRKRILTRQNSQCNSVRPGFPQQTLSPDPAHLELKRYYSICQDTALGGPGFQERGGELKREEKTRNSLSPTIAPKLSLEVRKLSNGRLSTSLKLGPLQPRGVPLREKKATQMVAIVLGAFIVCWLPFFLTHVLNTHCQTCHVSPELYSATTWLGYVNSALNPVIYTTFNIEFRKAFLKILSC

O=C(CCN1C(=O)CSc2ccccc21)Nc1ccc(Cl)cc1 [Compound 17, N-(4-Chlorophenyl)-3-(3-oxo-2,3-dihydro-4H-benzo[b][1,4]thiazin-4-yl)propanamide]
inhibition at 10 µM [1]: 29 ± 9% | inhibition at 10 µM [2]: 6 ± 3%
